Measurements from US12655189B2, “DOTA binding chimeric antigen receptor for cellular therapy” (THE TRUSTEES OF THE UNIVERSITY OF PENNSYLVANIA, priority 2019, dated 2026).

Key:
hC8.2.5 DOTA CAR T cells = assay: IFNγ secretion (ELISA) in response to immobilized DOTA or Y-DOTA; format: cell-based, human; conditions: immobilized ligand
Procedure: FIGS. 3A-3H illustrate Anti-DOTA Universal Immune Receptor binding and redirected killing. […] DOTA-NHS or Y-DOTA-Sarcosine-Biotin were incubated at various concentrations in a 96-well plate and allowed to passively adhere overnight at 4° C. Plates were washed 2× with PBS and 50,000 immune receptor expressing T cells were added to each well. Plates were incubated at 37° C. and 5% CO2 for 16 hours. Supernatants were harvested and analyzed for IFNγ secretion using a standard IFNγ ELISA kit. […] The average number of DOTA's per antibody was determined using the difference in mass between labeled and unlabeled antibody; in this example there are ˜9.3 DOTAs per antibody.

antigen positive cells = assay: Target-cell lysis with DOTA-conjugated targeting ligands: linker/metal tuning and blocking (FIGS. 3E, 6B, 9); format: cell-based; conditions: 6 nM DOTA-NHS blocking
Procedure: To investigate the ability of DOTA-linked antibodies to trigger effector function in CAR T cells, CAR T cells were incubated with varying amounts of the Her2-specific Herceptin-conjugated DOTA antibody for 16 hours (FIG. 3D). Following this incubation, the supernatant was collected and IFNγ production was measured.
Herceptin antibodies were conjugated to DOTA, various metal ions were chelated, and the ability of DOTA CAR T cells to kill their targets was evaluated.

CD20+ cells = assay: Lysis of CD20+ cells by DOTA CAR; format: cell-based; conditions: SKOV3 cells as antigen negative control
[1] = system: Ramos (CD20+/EGFR−) cells; assay: Luciferase lysis assay, Ramos; format: cell-based; conditions: 16 hours, 2.5:1 E:T, average of 1 DOTA per antibody
Procedure: Cetuximab and Rituximab were conjugated to Bn-DOTA to create targeting ligands with an average of 1 DOTA molecule per antibody, confirmed by MALDI TOF. MDA468 (CD20-/EGFR+) cells and Ramos (CD20+/EGFR−) cells expressing fLuc were incubated for 16 hours with DOTA CAR T cells at a 2.5:1 E:T ratio and targeting ligands at a range of concentrations. Each condition was run in triplicate. Luminescence was measured after co-culture and used to calculate lysis.

untransduced SKOV3 cells = assay: Cell uptake of radiolabeled probes, untransduced control cells; format: cell-based
Procedure: (§1) [^90Y]DOTA-Bn-NH2 and [^90Y]AABD (FIG. 14) were synthesized by incubating 0.6 mCi of Y-90 with DOTA-Bn-NH2 or AABD at 80° C. for 30 min. The radiochemical purity of [^90Y]DOTA-Bn-NH2 and [^90Y]AABD was >95% as analyzed by ITLC (instant thin-layer chromatography). Cell uptake studies were performed with SKOV3 cells transduced with the DOTA CAR, with untransduced SKOV3 cells as a control; excess Y-DOTA-Bn-NH2 (250 nM) was used as a blocking agent.
(§2) Rituxumab-Bn-DOTA-Y was radiolabeled with 1-125 using Pierce Pre-Coated Iodination Tubes. The radiochemical purity of [^125I]Rituximab-Bn-DOTA-Y was >99% based on ITLC (instant thin-layer chromatography). Cell uptake studies with [^125I]Rituximab-Bn-DOTA-Y were performed with SKOV3 cells that were transduced with the DOTA CAR, with untransduced SKOV3 cells as a control. […] This experiment confirmed that Y-DOTA labeled antibodies are capable of binding to cells that express the DOTA CAR, with minimal nonspecific binding.

[2] = system: SKOV3 cells transduced with the DOTA CAR; assay: Cell uptake of radiolabeled probes, DOTA CAR transduced cells; format: cell-based
Procedure: FIG. 19 is a histogram illustrating [[…]]DOTA-Bn-NH2 and [^90Y]AABD uptake in SKOV3 cells transduced with the DOTA CAR.
FIG. 20 is a graph illustrating [[…]]Rituximab-Bn-DOTA-Y uptake in SKOV3 cells transduced with the DOTA CAR. The cells bind to [^125I]Rituximab-Bn-DOTA-Y rapidly, with maximum uptake at 60 min.
as §1, §2

O=C(O)CN1CCN(CC(=O)O)CCN(CC(=O)ON2C(=O)CCC2=O)CCN(CC(=O)O)CC1 [DOTA-NHS]
concentration at which the IFNγ effect was saturating (hC8.2.5 DOTA CAR T cells): 100 µM | IFNγ production by hC8.2.5 DOTA CAR T cells (hC8.2.5 DOTA CAR T cells; 16 hours): low levels of IFNγ | effect of free monomeric DOTA on lytic function of Herceptin-NHS-DOTA-Y-CAR T cells (antigen positive cells): blockade of lytic function

Rituximab-Bn-DOTA: Rituximab conjugated to Bn-DOTA
lysis of CD20+ cells (CD20+ cells): specifically lysed | lysis of Ramos cells [1]: able to specifically lyse their respective target cell lines

Rituximab-Bn-DOTA-Y: Rituximab-Bn-DOTA with chelated yttrium
lysis of CD20+ cells (CD20+ cells): capable of lysing CD20+ cells

[^125I]Rituximab-Bn-DOTA-Y: Rituximab-Bn-DOTA-Y radiolabeled with I-125
cell uptake in untransduced cells (untransduced SKOV3 cells): minimal to no uptake | time of maximum uptake [2]: 60 min | cell uptake ([2]; at 60 min): 65 % input/10^6 cells
